Earlier results in patent publication US20040197905A1, “Methods and devices for monitoring cellular metabolism in microfluidic cell-retaining chambers” (Thermogenic Imagining, priority 2003, published 2004).
Read-outs that look alike come from different tables or passages of the source.

pKa (at 37° C.): 7.3-7.4 | pKa (at room temperature): about 7.5
Substance: carboxy SNARF-1
